Data reported in patent US20230183249A1, “NEW TRIAZINOINDOLE COMPOUNDS” (JANSSEN PHARMACEUTICA NV, priority 2020, published 2023).

Columns and labels:
[1] = target: T1, NLRP3 (Homo sapiens, UniProt Q96P20); test: PBMC assay, IL-1β release after LPS stimulation; assay type: cell-based; details: human PBMCs, 100 ng/ml LPS for 6 hrs, IL-1β in supernatant via MSD; read-out: IL1β IC50
T1 construct: human peripheral blood mononuclear cells (PBMCs) were isolated from blood; endogenous in cells; host or cells: primary human PBMCs from healthy donors
Method: The activity of a compound according to the present invention can be assessed by in vitro methods.
Peripheral venous blood was collected from healthy individuals and human peripheral blood mononuclear cells (PBMCs) were isolated from blood by Ficoll-Histopaque (Sigma-Aldrich, A0561) density gradient centrifugation. After isolation, PBMCs were stored in liquid nitrogen for later use. Upon thawing, PBMC cell viability was determined in growth medium (RPMI media supplemented with 10% fetal bovine serum, 1% Pen-Strep and 1% L-glutamine). […] PBMCs were added at a density of 7.5×10^4 cells per well and incubated for 30 min in a 5% C02 incubator at 37° C. LPS stimulation was performed by addition of 100 ng/ml LPS (final concentration, Invivogen, tlrl-smlps) for 6 hrs followed by collection of cellular supernatant and the analysis of IL-1β (μM) and TNF cytokines levels (μM) via MSD technology according to manufacturers' guidelines (MSD, K151A0H).

[2] = test system: TNF; test: PBMC assay, TNF cytokine levels after LPS stimulation; assay type: cell-based; details: human PBMCs, 100 ng/ml LPS for 6 hrs, TNF in supernatant via MSD
Method: Peripheral venous blood was collected from healthy individuals and human peripheral blood mononuclear cells (PBMCs) were isolated from blood by Ficoll-Histopaque (Sigma-Aldrich, A0561) density gradient centrifugation. After isolation, PBMCs were stored in liquid nitrogen for later use. Upon thawing, PBMC cell viability was determined in growth medium (RPMI media supplemented with 10% fetal bovine serum, 1% Pen-Strep and 1% L-glutamine). Compounds were spotted in a 1:3 serial dilution in DMSO and diluted to the final concentration in 30 μl medium in 96 well plates (Falcon, 353072). PBMCs were added at a density of 7.5×10^4 cells per well and incubated for 30 min in a 5% C02 incubator at 37° C. LPS stimulation was performed by addition of 100 ng/ml LPS (final concentration, Invivogen, tlrl-smlps) for 6 hrs followed by collection of cellular supernatant and the analysis of IL-1β (μM) and TNF cytokines levels (μM) via MSD technology according to manufacturers' guidelines (MSD, K151A0H).
The IC50 values (for IL-1β) and EC50 values (TNF) were obtained on compounds of the invention/examples, and are depicted in the following table: […]

T1 sequence (Q96P20 whole entry): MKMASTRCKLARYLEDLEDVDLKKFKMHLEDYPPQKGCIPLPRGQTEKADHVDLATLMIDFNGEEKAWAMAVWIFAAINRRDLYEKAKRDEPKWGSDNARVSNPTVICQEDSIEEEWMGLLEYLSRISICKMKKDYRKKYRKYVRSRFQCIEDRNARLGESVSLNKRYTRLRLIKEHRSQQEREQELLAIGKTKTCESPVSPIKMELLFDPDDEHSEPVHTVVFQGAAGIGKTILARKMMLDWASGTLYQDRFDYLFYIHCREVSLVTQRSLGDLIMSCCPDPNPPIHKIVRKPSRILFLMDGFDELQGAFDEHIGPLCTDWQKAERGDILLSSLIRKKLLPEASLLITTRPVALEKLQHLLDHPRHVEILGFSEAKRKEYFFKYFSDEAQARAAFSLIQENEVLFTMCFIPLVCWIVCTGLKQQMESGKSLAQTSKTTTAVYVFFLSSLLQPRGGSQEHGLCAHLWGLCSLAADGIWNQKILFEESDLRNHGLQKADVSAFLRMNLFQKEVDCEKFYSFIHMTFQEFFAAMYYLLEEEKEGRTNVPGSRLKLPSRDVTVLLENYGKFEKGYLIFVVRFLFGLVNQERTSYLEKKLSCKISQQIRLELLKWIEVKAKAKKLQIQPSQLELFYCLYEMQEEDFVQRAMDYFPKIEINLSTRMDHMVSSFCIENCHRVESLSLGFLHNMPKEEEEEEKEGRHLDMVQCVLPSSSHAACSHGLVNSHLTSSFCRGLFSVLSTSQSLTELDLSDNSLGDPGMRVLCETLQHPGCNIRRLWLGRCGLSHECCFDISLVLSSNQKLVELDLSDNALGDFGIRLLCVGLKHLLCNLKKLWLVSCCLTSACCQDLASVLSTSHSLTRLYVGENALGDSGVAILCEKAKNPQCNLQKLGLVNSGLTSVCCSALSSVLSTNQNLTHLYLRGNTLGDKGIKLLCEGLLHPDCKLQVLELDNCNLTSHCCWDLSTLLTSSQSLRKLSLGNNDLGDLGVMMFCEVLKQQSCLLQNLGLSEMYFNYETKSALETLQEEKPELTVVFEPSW

SMILES	IC50 [1] [µM]	EC50 [2] [µM]	melting point [°C]
O=C(Cn1nc(Cl)n2c(cc3ccccc32)c1=O)Nc1ccncn1 [Final Cpd 1, 2-(4-chloro-1-oxo-[1,2,4]triazino[4,5-a]indol-2-yl)-N-pyrimidin-4-yl-acetamide]	0.62	> 10	
O=C(Cn1ncn2c(cc3ccccc32)c1=O)Nc1ccncn1 [Final Cpd 2]	1.89	> 10	
O=C(Cn1ncn2c(cc3ccc(F)cc32)c1=O)Nc1ccncn1 [Final Cpd 3]	1.58	> 10	
O=C(Cn1nc(C2CCC2)n2c(cc3ccccc32)c1=O)Nc1ccncn1 [Final Cpd 4]	1.54	> 10	
O=C(Cn1nc(C(F)F)n2c(cc3ccccc32)c1=O)Nc1ccncn1 [Final Cpd 5]	0.47	> 10	
CC(F)(F)c1nn(CC(=O)Nc2ccncn2)c(=O)c2cc3ccccc3n12 [Final Cpd 6]	> 10	> 10	
N#Cc1nn(CC(=O)Nc2ccncn2)c(=O)c2cc3ccccc3n12 [Final Cpd 7]	3.5	> 10	
O=C(Cn1nc(-c2ncco2)n2c(cc3ccccc32)c1=O)Nc1ccncn1 [Final Cpd 8]	5.8	> 10	
O=C(Cn1nc(C(F)(F)F)n2c(cc3ccccc32)c1=O)Nc1ccncn1 [Final Cpd 9]	1.91	> 10	
CCc1nn(CC(=O)NC2CC2)c(=O)c2cc3ccc(F)cc3n12 [Final Cpd 10]	1.68	> 10	277.81
COc1ncccc1NC(=O)Cn1nc(C(C)C)n2c(cc3ccccc32)c1=O [Final Cpd 12]	0.41	> 10	
Cc1cc(NC(=O)Cn2nc(C(C)C)n3c(cc4ccccc43)c2=O)ccn1 [Final Cpd 13]	0.15	> 10	
CC(C)c1nn(CC(=O)Nc2ccncn2)c(=O)c2cc3ccccc3n12 [Final Cpd 14]	0.17	> 10	
CCc1nn(CC(=O)Nc2cccnc2)c(=O)c2cc3ccccc3n12 [Final Cpd 15]	0.63	> 10	232.81
CCc1nn(CC(=O)Nc2ccccc2OC)c(=O)c2cc3ccccc3n12 [Final Cpd 17]	2.8	> 10	216.79
O=C(Cn1nc(C2CC2)n2c(cc3ccccc32)c1=O)Nc1ccncn1 [Final Cpd 18]	0.76	> 10	
CN(C)c1nn(CC(=O)NC2CCOCC2)c(=O)c2cc3ccccc3n12 [Final Cpd 20]	0.31	> 10	
CN(C)c1nn(CC(=O)N[C@H]2CC[C@H](O)CC2)c(=O)c2cc3ccccc3n12 [Final Cpd 21]	0.39	> 10	
CC(O)c1nn(CC(=O)Nc2ccncn2)c(=O)c2cc3ccccc3n12 (stereo not shown) [Final Cpd 22, 2-[4-(1-hydroxyethyl)-1-oxo-[1,2,4]triazino[4,5-a]indol-2-yl]-N-pyrimidin-4-yl-acetamide]	1.44	> 10	
Cc1nn(CC(=O)NC2CC2)c(=O)c2cc3ccccc3n12 [Final Cpd 23, N-cyclopropyl-2-(4-methyl-1-oxo-[1,2,4]triazino[4,5-a]indol-2-yl)acetamide]	9.12	> 10	
COc1nn(CC(=O)NC2CCOCC2)c(=O)c2cc3ccccc3n12 [Final Cpd 24, 2-(4-methoxy-1-oxo-[1,2,4]triazino[4,5-a]indol-2-yl)-N-tetrahydropyran-4-yl-acetamide]	1.17	> 10	
O=C(Cn1nc(C2CCCC2)n2c(cc3ccccc32)c1=O)NC1CCOCC1 [Final Cpd 25]	> 10	> 20	
CC(C)Cc1nn(CC(=O)NC2CCOCC2)c(=O)c2cc3ccccc3n12 [Final Cpd 26]	> 10	> 10	

SMILES	IC50 [1] [µM]	EC50 [2] [µM]	melting point [°C]
O=C(Cn1nc(-c2cccs2)n2c(cc3ccccc32)c1=O)NC1CCOCC1 [Final Cpd 27]	> 10	> 10	
O=C(Cn1nc(C2CCCCC2)n2c(cc3ccccc32)c1=O)NC1CCOCC1 [Final Cpd 28]	> 10	> 10	
CC(C)c1nn(CC(=O)NC2CC2)c(=O)c2cc3ccccc3n12 [Final Cpd 29]	0.66	> 10	
CCc1nn(CC(=O)Nc2ccncn2)c(=O)c2cc3ccc(C)cc3n12 [Final Cpd 30]	> 10	> 10	248.91
CCc1nn(CC(=O)Nc2ccncc2)c(=O)c2cc3ccc(F)cc3n12 [Final Cpd 31]	0.79	> 10	
CCc1nn(CC(=O)NC2CCOCC2)c(=O)c2cc3ccc(C)cc3n12 [Final Cpd 32]	> 10	> 10	264.11
CCc1nn(CC(=O)Nc2ccncn2)c(=O)c2cc3ccc(F)cc3n12 [Final Cpd 33]	0.31	> 10	
CCc1nn(CC(=O)NC2CCOCC2)c(=O)c2cc3cc(C)ccc3n12 [Final Cpd 34]	7.24	> 10	274.18
CCc1nn(CC(=O)NC2CCOCC2)c(=O)c2cc3cc(F)ccc3n12 [Final Cpd 35]	> 10	> 10	285.66
CCc1nn(CC(=O)Nc2ccncn2)c(=O)c2cc3cc(F)ccc3n12 [Final Cpd 36]	7.24	> 10	
CCc1nn(CC(=O)Nc2ccncn2)c(=O)c2cc3cc(C)ccc3n12 [Final Cpd 37]	> 10	> 10	
CCc1nn(CC(=O)Nc2ccn(C(C)C)n2)c(=O)c2cc3ccccc3n12 [Final Cpd 38]	7.7	> 20	243
CCc1nn(CC(=O)N[C@H]2C[C@@](C)(O)C2)c(=O)c2cc3ccc(F)cc3n12 [Final Cpd 39, 2-{4-ethyl-7-fluoro-1-oxo-[1,2,4]triazino[4,5-a]indol-2(1H)-yl}-N-((1s,3s)-3-hydroxy-3-methylcyclobutyl)acetamide]	0.176	> 20	
CN(C)c1nn(CC(=O)N[C@H]2C[C@@](C)(O)C2)c(=O)c2cc3ccc(F)cc3n12 [Final Cpd 40]	0.237	> 20	
CC(C)c1nn(CC(=O)N[C@H]2C[C@@](C)(O)C2)c(=O)c2cc3ccccc3n12 [Final Cpd 41]	0.052	15.4	
CC(C)c1nn(CC(=O)N[C@H]2C[C@@](C)(O)C2)c(=O)c2cc3ccc(F)cc3n12 [Final Cpd 42]	0.077	10.9	
CCc1nn(CC(=O)N[C@H]2C[C@@](C)(O)C2)c(=O)c2cc3ccccc3n12 [Final Cpd 43]	0.086	> 20	
CN(C)c1nn(CC(=O)N[C@H]2C[C@@](C)(O)C2)c(=O)c2cc3ccccc3n12 [Final Cpd 44]	0.057	> 20	
CC(C)c1nn(CC(=O)Nc2ccc3nncn3c2)c(=O)c2cc3ccc(F)cc3n12 [Final Cpd 46]	0.044	> 20	
CN(C)c1nn(CC(=O)Nc2ccc3nncn3c2)c(=O)c2cc3ccccc3n12 [Final Cpd 47]	0.052	> 20	
CCc1nn(CC(=O)Nc2ccc3nncn3c2)c(=O)c2cc3ccccc3n12 [Final Cpd 48]	0.122	> 20	
CC(C)c1nn(CC(=O)Nc2ccc3nncn3n2)c(=O)c2cc3ccccc3n12 [Final Cpd 49, N-([1,2,4]triazolo[4,3-b]pyridazin-6-yl)-2-(4-isopropyl-1-oxo-[1,2,4]triazino[4,5-a]indol-2(1H)-yl)acetamide]	0.025	3.94	
COc1nn(CC(=O)NC2CC2)c(=O)c2cc3ccccc3n12 [Final Cpd 50]	4.07	> 10	
